Read-outs that look alike come from different tables or passages of the source.
Assays:
[1] = test system: MIA PaCa-2 cells with Kras G12C mutation; test: Cell proliferation inhibition experiment, 3D spheroid, CellTiter-Glo (Test Example 3); type: cell-based, human; details: 5 days, read-out: MIA-PaCa2 IC50
How it was run: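 MIA PaCa-2 spheroids (200 cells/well) were formed overnight, then exposed for 5 days to compounds in 3.16-fold dilutions at 0.1% DMSO. Viability was read by CellTiter-Glo luminescence, and inhibition was normalised to DMSO control and medium blank. IC50 came from a four-parameter fit.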

KRas G12C = KRas G12C (Homo sapiens (Human), UniProt P01116, G12C); test: Nucleotide exchange assay (NEA)-HTRF, SOS1 catalyzed displacement of GDP by GTP (Test Example 4); type: biochemical
Chain of KRas G12C (P01116-2 other isoform, or with tags, fused parts or gaps G12C): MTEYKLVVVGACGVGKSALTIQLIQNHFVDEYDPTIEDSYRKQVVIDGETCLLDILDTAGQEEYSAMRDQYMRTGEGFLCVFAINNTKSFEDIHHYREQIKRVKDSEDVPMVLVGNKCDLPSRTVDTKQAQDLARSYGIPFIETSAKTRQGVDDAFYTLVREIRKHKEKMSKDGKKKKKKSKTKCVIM
How it was run: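 His-tagged KRas G12C preloaded with DY647-GDP (40 nM working solution, with anti-His Tb) was preincubated 15 min with compound at 20 °C. SOS1/GTP (0.2 μM/200 μM working solution) was then added for 2 h in the dark. The HTRF 665/615 nm ratio gave inhibition relative to no-compound control and SOS1/GTP-free T0, with a four-parameter IC50 fit.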

[2] = Pharmacokinetic evaluation on mice, intragastric (PO) administration (Test Example 6); type: in vivo; details: mouse, plasma, PO 15 mg/kg, male CD-1 mice; for bioavailability: read-out: F (bioavailability); for Cmax: read-out: Cmax; for Tmax: read-out: Tmax
Description: Experimental objective: male CD-1 mice were chosen as tested animals, and the LC-MS-MS method was employed to measure the concentrations of a tested compound in blood plasma of a mouse intravenously and intragastrically administrated with the tested compound at different times. The pharmacokinetic behaviors of tested compounds in mice were studied, and the pharmacokinetic characteristics thereof were evaluated.
Experimental scheme: experimental animals: 18 healthy adult male CD-1 mice (6 to 8 weeks old, and body weight about 30 g) were divided into 6 groups according to the principle of similar body weights: 3 mice in each of IV groups (3 groups), and 3 mice in each of PO groups (3 groups). The animals were purchased from Shanghai Jihui Laboratory Animal Care Co., Ltd.
Formulation: IV group: taking 10 mL of sample solution for example, 4 mg of sample was weighed, orderly added with 0.5 mL of DMSO and […], then added with […] of HP-p-CD, finally added with water to a constant volume of 10 mL, and stirred and subjected to ultrasonic irradiation, thereby obtaining a 0.4 mg/mL clear solution. PO group: an appropriate amount of sample was weighed, orderly added with appropriate amounts of Labrasol and water in a volume ratio of 10:40, and stirred and subjected to ultrasonic irradiation, thereby obtaining a 1.5 mg/mL uniform solution.
Administration: after being deprived of food for one night, the IV groups were intravenously administrated with the formulated solutions, respectively, with an injection volume of 5 mL/kg and a dosage of 2 mg/kg. The PO groups were intragastrically administrated with the formulated solutions, respectively, with an injection volume of […] and a dosage of 15 mg/kg.
Experimental operations: after the intravenous injection groups and the intragastric administration groups of the male CD-1 mice were administrated with the tested compounds, 110 ul of blood was sampled at the following time points: 0.0833, 0.25, 0.5, 1, 2, 4, 6, 8, and 24 hours. The sampled blood was placed into an anticoagulant tube which was added with K2EDTA in advance and preserved in dry ice. The tube was centrifuged for 15 minutes to separate blood plasma, and the separated blood plasma was preserved at −70° C. The animals were allowed to be fed after 4 hours of administration. The LC-MS-MS method was employed to measure the concentration of the tested compounds in the blood plasma after the intravenous and intragastric administration to the mice. The linear range of the method was 1-3000 ng/ml. The blood plasma samples were analyzed after protein precipitation with ACN.

[3] = Homo sapiens, MIA PaCa-2, 120 h

SMILES	IC50 [1, 3]	IC50 (KRas G12C)	bioavailability [2]	Cmax [2]	Tmax [2]	IC50 ([1]; Homo sapiens, 120 h)	IC50 [1]
C=CC(=O)N1CCN2c3c(c(=O)n(-c4c(C)ccnc4C(C)C)c4nc(-c5c(O)cccc5F)c(F)cc34)N(C)C(=O)[C@H]2C1 (single isomer, unassigned) [Compound Z9-2]	17 nM	115 nM	103%	13200 ng/mL	1 h		
C=CC(=O)N1C[C@@H]2C(=O)N(C)c3c(c4cc(F)c(-c5c(O)cccc5F)nc4n(-c4c(C)ccnc4C(C)C)c3=O)N2C[C@H]1C (single isomer, unassigned) [Compound Z10-2]	8 nM	37 nM	59.2%	3960 ng/mL	1 h		
C=CC(=O)N1CCN2c3c(c(=O)n(-c4c(C)ccnc4C(C)C)c4nc(-c5c(O)cccc5F)c(Cl)cc34)N(C)C(=O)[C@H]2C1 (single isomer, unassigned) [Compound Z25-2]		25 nM	93.5%	6640 ng/mL	1.93 h	5 nM	
[2H]C([2H])([2H])N1C(=O)[C@H]2CN(C(=O)C=C)CCN2c2c1c(=O)n(-c1c(C)ccnc1C(C)C)c1nc(-c3c(O)cccc3F)c(Cl)cc21 (single isomer, unassigned) [Compound Z26-2]		40 nM					5 nM
C=CC(=O)N1C[C@@H]2C(=O)N(C)c3c(c4cc(Cl)c(-c5c(O)cccc5F)nc4n(-c4c(C)ccnc4C(C)C)c3=O)N2C[C@H]1C (single isomer, unassigned) [Compound Z27-2]	1 nM	9 nM	96.8%	3660 ng/mL	1.74 h		
C=CC(=O)N1CCN2c3c(c(=O)n(-c4c(C(C)C)ncnc4C(C)C)c4c(F)c(-c5c(O)cccc5F)c(Cl)cc34)NC(=O)[C@H]2C1 (single isomer, unassigned) [Compound Z37-1]	2 nM	11 nM					
C=CC(=O)N1CCN2c3c(c(=O)n(-c4c(C)ccnc4C(C)C)c4nc(-c5c(O)cccc5F)c(F)cc34)OC[C@H]2C1 [Compound Z1, (4aR)-3-acryloyl-11-fluoro-10-(2-fluoro-6-hydroxyphenyl)-8-(2-isopropyl-4-methylpyridin-3-yl)-1,2,3,4,4a,5-hexahydropyrazino[1′,2′:4,5][1,4]oxazino[2,3-c][1,8]naphthyridin-7(8H)-one]	90 nM	255 nM		2600 ng/mL	0.25 h		
C=CC(=O)N1CCN2c3c(c(=O)n(-c4c(C(C)C)ncnc4C(C)C)c4nc(-c5c(O)cccc5F)c(Cl)cc34)N(C)C(=O)[C@H]2C1 [Compound Z48]	6 nM		38.1%	1250 ng/mL	0.5 h		

From patent US12054497B2, “Substituted heterocyclic fused cyclic compound, preparation method therefor and pharmaceutical use thereof” (GENFLEET THERAPEUTICS (SHANGHAI) INC., priority 2019, dated 2024)
